# Starred links: 1 amine or outer side, 2 acyl side, 3 side chain; linkers in the order of their positions; H or OH if unused. Positions of bridges follow the written chain, without caps; N, C: chain ends. Non-standard residues stand in square brackets, D forms with d. Residues, ends and D or L forms follow the SMILES beside them. *: point of attachment. Bip(4'-NHCO-C6H4-3-CH2COOH) = N[C@@H](Cc1ccc(-c2ccc(NC(=O)c3cccc(CC(=O)O)c3)cc2)cc1)C(=O)O; Bip(4'-NHCO-C6H4-4-CH2COOH) = N[C@@H](Cc1ccc(-c2ccc(NC(=O)c3ccc(CC(=O)O)cc3)cc2)cc1)C(=O)O; dArg(Nω-CH2C6H4-3-CH2Gua) = N=C(N)NCc1cccc(CNC(=N)NCCC[C@@H](N)C(=O)O)c1; Bip(4'-NH) = O=C([C@H](Cc1ccc(-c2ccc(N[*:3])cc2)cc1)N[*:1])[*:2]; dArg(ω-(3-HO-benzyl)) = N=C(NCCC[C@@H](N)C(=O)O)NCc1cccc(O)c1; Indazole3carbonyl(1-CH2COOH) = O=C(O)Cn1nc(C(=O)*)c2ccccc21; Bip(4'-COOH) = N[C@@H](Cc1ccc(-c2ccc(C(=O)O)cc2)cc1)C(=O)O; Ala(morpholin-4-yl) = N[C@@H](CN1CCOCC1)C(=O)O; Benzoyl(3-OCH2COOH) = O=C(O)COc1cccc(C(=O)*)c1; Phe(3-CONH2) = NC(=O)c1cccc(C[C@H](N)C(=O)O)c1; Bip = N[C@@H](Cc1ccc(-c2ccccc2)cc1)C(=O)O; 2Pal = N[C@@H](Cc1ccccn1)C(=O)O; 2Thi = N[C@@H](Cc1cccs1)C(=O)O; Cha = N[C@@H](CC1CCCCC1)C(=O)O; Tle = CC(C)(C)[C@H](N)C(=O)O; Sar = CNCC(=O)O
# Target: TNFα (Homo sapiens, UniProt P01375)
# Assay: TNF-Induced HEK-Blue Assay
# Type: cell-based
# Settings: not given
# TNFα, sequence (P01375 77-233 limits assumed): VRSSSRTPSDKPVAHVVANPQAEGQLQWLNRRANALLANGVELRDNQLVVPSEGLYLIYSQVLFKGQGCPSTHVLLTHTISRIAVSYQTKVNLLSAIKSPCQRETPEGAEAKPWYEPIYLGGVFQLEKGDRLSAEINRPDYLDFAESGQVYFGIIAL
row,SMILES,IC50 [nM]
1,CC(C)C[C@@H]1NC(=O)[C@H](Cc2cccc(C(N)=O)c2)NC(=O)[C@H](C(C)C)NC(=O)[C@@H]2CCCN2C(=O)[C@H](C(C)C)NC(=O)[C@@H](CCCNC(=N)NCc2cccc(CNC(=N)N)c2)NC(=O)[C@H](CC(=O)O)NC(=O)[C@H](Cc2ccc(O)cc2)NC(=O)CN(C)C(=O)[C@H](Cc2ccc(-c3ccc(NC(=O)c4nn(CC(=O)O)c5ccccc45)cc3)cc2)NC(=O)[C@H](Cc2ccc(-c3ccccc3)cc2)NC(=O)[C@H](CN2CCOCC2)NC(=O)CSC[C@@H](C(=O)NCC(N)=O)NC1=O [Example 620] ({CH2CO}-[Ala(morpholin-4-yl)][Bip][Bip(4'-NH)](Indazole3carbonyl(1-CH2COOH))[Sar]YD[dArg(Nω-CH2C6H4-3-CH2Gua)]VPV[Phe(3-CONH2)]LCG-NH2; thioether N-13),< 50
2,CC(C)C[C@@H]1NC(=O)[C@H](Cc2cnc[nH]2)NC(=O)[C@H](C(C)C)NC(=O)[C@@H]2CCCN2C(=O)[C@H](C(C)C)NC(=O)[C@@H](CCCNC(=N)NCc2cccc(CNC(=N)N)c2)NC(=O)[C@H](CC(=O)O)NC(=O)[C@H](Cc2ccccn2)NC(=O)CN(C)C(=O)[C@H](Cc2ccc(-c3ccc(NC(=O)c4nn(CC(=O)O)c5ccccc45)cc3)cc2)NC(=O)[C@H](Cc2ccc(-c3ccccc3)cc2)NC(=O)[C@H](CN2CCOCC2)NC(=O)CSC[C@@H](C(=O)NCC(N)=O)NC1=O [Example 621] ({CH2CO}-[Ala(morpholin-4-yl)][Bip][Bip(4'-NH)](Indazole3carbonyl(1-CH2COOH))[Sar][2Pal]D[dArg(Nω-CH2C6H4-3-CH2Gua)]VPVHLCG-NH2; thioether N-13),< 50
3,CC(C)C[C@@H]1NC(=O)[C@H](Cc2ccc(O)cc2)NC(=O)[C@H](C(C)C)NC(=O)[C@@H]2CCCN2C(=O)[C@H](C(C)C)NC(=O)[C@@H](CCCNC(=N)NCc2cccc(CNC(=N)N)c2)NC(=O)[C@H](CC(=O)O)NC(=O)[C@@H]2CCCN2C(=O)CN(C)C(=O)[C@H](Cc2ccc(-c3ccc(NC(=O)c4nn(CC(=O)O)c5ccccc45)cc3)cc2)NC(=O)[C@H](Cc2ccc(-c3ccccc3)cc2)NC(=O)[C@H](CN2CCOCC2)NC(=O)CSC[C@@H](C(=O)NCC(N)=O)NC1=O [Example 622] ({CH2CO}-[Ala(morpholin-4-yl)][Bip][Bip(4'-NH)](Indazole3carbonyl(1-CH2COOH))[Sar]PD[dArg(Nω-CH2C6H4-3-CH2Gua)]VPVYLCG-NH2; thioether N-13),< 50
4,CC(C)C[C@@H]1NC(=O)[C@H](Cc2cccs2)NC(=O)[C@H](C(C)C)NC(=O)[C@@H]2CCCN2C(=O)[C@H](C(C)C)NC(=O)[C@@H](CCCNC(=N)NCc2cccc(CNC(=N)N)c2)NC(=O)[C@H](CC(=O)O)NC(=O)[C@H](Cc2ccccn2)NC(=O)CN(C)C(=O)[C@H](Cc2ccc(-c3ccc(NC(=O)c4nn(CC(=O)O)c5ccccc45)cc3)cc2)NC(=O)[C@H](Cc2ccc(-c3ccccc3)cc2)NC(=O)[C@H](CN2CCOCC2)NC(=O)CSC[C@@H](C(=O)NCC(N)=O)NC1=O [Example 623] ({CH2CO}-[Ala(morpholin-4-yl)][Bip][Bip(4'-NH)](Indazole3carbonyl(1-CH2COOH))[Sar][2Pal]D[dArg(Nω-CH2C6H4-3-CH2Gua)]VPV[2Thi]LCG-NH2; thioether N-13),< 50
5,CC(C)C[C@@H]1NC(=O)[C@H](Cc2cnc[nH]2)NC(=O)[C@H](C(C)C)NC(=O)[C@@H]2CCCN2C(=O)[C@H](C(C)C)NC(=O)[C@@H](CCCNC(=N)NCc2cccc(O)c2)NC(=O)[C@H](CC(=O)O)NC(=O)[C@H](Cc2ccccn2)NC(=O)CN(C)C(=O)[C@H](Cc2ccc(-c3ccc(NC(=O)c4nn(CC(=O)O)c5ccccc45)cc3)cc2)NC(=O)[C@H](Cc2ccc(-c3ccccc3)cc2)NC(=O)[C@H](CN2CCOCC2)NC(=O)CSC[C@@H](C(=O)NCC(N)=O)NC1=O [Example 624] ({CH2CO}-[Ala(morpholin-4-yl)][Bip][Bip(4'-NH)](Indazole3carbonyl(1-CH2COOH))[Sar][2Pal]D[dArg(ω-(3-HO-benzyl))]VPVHLCG-NH2; thioether N-13),< 50

# Same assay, conditions: HEK-Blue-CD40L cells, NF-kB-driven secreted alkaline phosphatase reporter; TNFα 0.5 ng/ml; 18 h; read-out: TNF induced HEK-Blue assay IC50 value
row,SMILES,IC50 [nM]
1,CC(C)C[C@@H]1NC(=O)[C@H](Cc2cccs2)NC(=O)[C@H](C(C)C)NC(=O)[C@@H]2CCCN2C(=O)[C@H](C(C)C)NC(=O)[C@@H](CCCNC(=N)N)NC(=O)[C@H](CC(=O)O)NC(=O)[C@H](Cc2ccccn2)NC(=O)CN(C)C(=O)[C@H](Cc2ccc(-c3ccc(NC(=O)c4cccc(OCC(=O)O)c4)cc3)cc2)NC(=O)[C@H](Cc2ccc(-c3ccc(C(=O)O)cc3)cc2)NC(=O)[C@H](C(C)(C)C)NC(=O)CSC[C@@H](C(=O)NCC(N)=O)NC1=O [Example 615] ({CH2CO}-[Tle][Bip(4'-COOH)][Bip(4'-NH)](Benzoyl(3-OCH2COOH))[Sar][2Pal]D[dR]VPV[2Thi]LCG-NH2; thioether N-13),50 to 200
2,CC(C)C[C@@H]1NC(=O)[C@H](Cc2cccs2)NC(=O)[C@H](C(C)C)NC(=O)[C@@H]2CCCN2C(=O)[C@H](C(C)C)NC(=O)[C@@H](CCCNC(=N)N)NC(=O)[C@H](CC(=O)O)NC(=O)[C@H](Cc2ccccn2)NC(=O)CN(C)C(=O)[C@H](Cc2ccc(-c3ccc(NC(=O)c4cccc(OCC(=O)O)c4)cc3)cc2)NC(=O)[C@H](Cc2ccc(-c3ccccc3)cc2)NC(=O)[C@H](CC2CCCCC2)NC(=O)CSC[C@@H](C(=O)NCC(N)=O)NC1=O [Example 616] ({CH2CO}-[Cha][Bip][Bip(4'-NH)](Benzoyl(3-OCH2COOH))[Sar][2Pal]D[dR]VPV[2Thi]LCG-NH2; thioether N-13),50 to 200
3,CC(C)C[C@@H]1NC(=O)[C@H](Cc2cccs2)NC(=O)[C@H](C(C)C)NC(=O)[C@@H]2CCCN2C(=O)[C@H](C(C)C)NC(=O)[C@@H](CCCNC(=N)N)NC(=O)[C@H](CC(=O)O)NC(=O)[C@H](Cc2ccccn2)NC(=O)CN(C)C(=O)[C@H](Cc2ccc(-c3ccc(NC(=O)c4ccc(CC(=O)O)cc4)cc3)cc2)NC(=O)[C@H](Cc2ccc(-c3ccccc3)cc2)NC(=O)[C@H](CC2CCCCC2)NC(=O)CSC[C@@H](C(=O)NCC(N)=O)NC1=O [Example 617] ({CH2CO}-[Cha][Bip][Bip(4'-NHCO-C6H4-4-CH2COOH)][Sar][2Pal]D[dR]VPV[2Thi]LCG-NH2; thioether N-13),< 50
4,CC(C)C[C@@H]1NC(=O)[C@H](Cc2cccs2)NC(=O)[C@H](C(C)C)NC(=O)[C@@H]2CCCN2C(=O)[C@H](C(C)C)NC(=O)[C@@H](CCCNC(=N)N)NC(=O)[C@H](CC(=O)O)NC(=O)[C@H](Cc2ccccn2)NC(=O)CN(C)C(=O)[C@H](Cc2ccc(-c3ccc(NC(=O)c4cccc(CC(=O)O)c4)cc3)cc2)NC(=O)[C@H](Cc2ccc(-c3ccccc3)cc2)NC(=O)[C@H](CC2CCCCC2)NC(=O)CSC[C@@H](C(=O)NCC(N)=O)NC1=O [Example 618] ({CH2CO}-[Cha][Bip][Bip(4'-NHCO-C6H4-3-CH2COOH)][Sar][2Pal]D[dR]VPV[2Thi]LCG-NH2; thioether N-13),50 to 200

# Results, then the molecule that gave them:
row,IC50 [nM],SMILES
1,< 50,CC(C)C[C@@H]1NC(=O)[C@H](Cc2cccs2)NC(=O)[C@H](C(C)C)NC(=O)[C@@H]2CCCN2C(=O)[C@H](C(C)C)NC(=O)[C@@H](CCCNC(=N)N)NC(=O)[C@H](CC(=O)O)NC(=O)[C@H](Cc2ccccn2)NC(=O)CN(C)C(=O)[C@H](Cc2ccc(-c3ccc(NC(=O)c4cccc(CC(=O)O)c4)cc3)cc2)NC(=O)[C@H](Cc2ccc(-c3ccc(C(=O)O)cc3)cc2)NC(=O)[C@H](CN2CCOCC2)NC(=O)CSC[C@@H](C(=O)NCC(N)=O)NC1=O [Example 610] ({CH2CO}-[Ala(morpholin-4-yl)][Bip(4'-COOH)][Bip(4'-NHCO-C6H4-3-CH2COOH)][Sar][2Pal]D[dR]VPV[2Thi]LCG-NH2; thioether N-13)
2,< 50,CC(C)C[C@@H]1NC(=O)[C@H](Cc2cccs2)NC(=O)[C@H](C(C)C)NC(=O)[C@@H]2CCCN2C(=O)[C@H](C(C)C)NC(=O)[C@@H](CCCNC(=N)N)NC(=O)[C@H](CC(=O)O)NC(=O)[C@H](Cc2ccccn2)NC(=O)CN(C)C(=O)[C@H](Cc2ccc(-c3ccc(NC(=O)c4ccc(CC(=O)O)cc4)cc3)cc2)NC(=O)[C@H](Cc2ccc(-c3ccc(C(=O)O)cc3)cc2)NC(=O)[C@H](CN2CCOCC2)NC(=O)CSC[C@@H](C(=O)NCC(N)=O)NC1=O [Example 611] ({CH2CO}-[Ala(morpholin-4-yl)][Bip(4'-COOH)][Bip(4'-NHCO-C6H4-4-CH2COOH)][Sar][2Pal]D[dR]VPV[2Thi]LCG-NH2; thioether N-13)
3,50 to 200,CC(C)C[C@@H]1NC(=O)[C@H](Cc2cccs2)NC(=O)[C@H](C(C)C)NC(=O)[C@@H]2CCCN2C(=O)[C@H](C(C)C)NC(=O)[C@@H](CCCNC(=N)N)NC(=O)[C@H](CC(=O)O)NC(=O)[C@H](Cc2ccccn2)NC(=O)CN(C)C(=O)[C@H](Cc2ccc(-c3ccc(NC(=O)c4ccc(CC(=O)O)cc4)cc3)cc2)NC(=O)[C@H](Cc2ccc(-c3ccc(C(=O)O)cc3)cc2)NC(=O)[C@H](CC2CCCCC2)NC(=O)CSC[C@@H](C(=O)NCC(N)=O)NC1=O [Example 612] ({CH2CO}-[Cha][Bip(4'-COOH)][Bip(4'-NHCO-C6H4-4-CH2COOH)][Sar][2Pal]D[dR]VPV[2Thi]LCG-NH2; thioether N-13)
4,50 to 200,CC(C)C[C@@H]1NC(=O)[C@H](Cc2cccs2)NC(=O)[C@H](C(C)C)NC(=O)[C@@H]2CCCN2C(=O)[C@H](C(C)C)NC(=O)[C@@H](CCCNC(=N)N)NC(=O)[C@H](CC(=O)O)NC(=O)[C@H](Cc2ccccn2)NC(=O)CN(C)C(=O)[C@H](Cc2ccc(-c3ccc(NC(=O)c4cccc(CC(=O)O)c4)cc3)cc2)NC(=O)[C@H](Cc2ccc(-c3ccc(C(=O)O)cc3)cc2)NC(=O)[C@H](CC2CCCCC2)NC(=O)CSC[C@@H](C(=O)NCC(N)=O)NC1=O [Example 613] ({CH2CO}-[Cha][Bip(4'-COOH)][Bip(4'-NHCO-C6H4-3-CH2COOH)][Sar][2Pal]D[dR]VPV[2Thi]LCG-NH2; thioether N-13)
5,50 to 200,CC(C)C[C@@H]1NC(=O)[C@H](Cc2cccs2)NC(=O)[C@H](C(C)C)NC(=O)[C@@H]2CCCN2C(=O)[C@H](C(C)C)NC(=O)[C@@H](CCCNC(=N)N)NC(=O)[C@H](CC(=O)O)NC(=O)[C@H](Cc2ccccn2)NC(=O)CN(C)C(=O)[C@H](Cc2ccc(-c3ccc(NC(=O)c4cccc(OCC(=O)O)c4)cc3)cc2)NC(=O)[C@H](Cc2ccc(-c3ccc(C(=O)O)cc3)cc2)NC(=O)[C@H](CC2CCCCC2)NC(=O)CSC[C@@H](C(=O)NCC(N)=O)NC1=O [Example 614] ({CH2CO}-[Cha][Bip(4'-COOH)][Bip(4'-NH)](Benzoyl(3-OCH2COOH))[Sar][2Pal]D[dR]VPV[2Thi]LCG-NH2; thioether N-13)

# From US20250145665A1, “MACROCYCLIC PEPTIDES USEFUL AS MODULATORS OF TNF ALPHA” (Bristol-Myers Squibb Company, priority 2023, published 2025)
